Three compounds from patent US20250195521A1 (Revolution Medicines, Inc., priority 2020, published 2025) can be followed below.

Assay [1] has as its target KRAS G12S binding to BRAF RBD (Homo sapiens (Human), UniProt P01116+P62937, G12S). Put plainly: Ras-Raf disruption/FRET/MOA assay, KRAS G12S. The assay is classed as biochemical. From the text: (§1) Note—The following protocol describes a procedure for monitoring disruption of K-Ras G12C(GMP-PNP) binding to BRAF^RBD by a compound of the invention. This protocol may also be executed substituting other Ras proteins or nucleotides.
(§2) The purpose of this biochemical assay was to measure the ability of test compounds to facilitate ternary complex formation between a nucleotide-loaded K-Ras isoform and Cyclophilin A; the resulting ternary complex disrupts binding to a BRAF^RBD construct, inhibiting K-Ras signaling through a RAF effector. Data is reported as IC50 values.
(§3) Compound was present in plate wells as a 10-point 3-fold dilution series starting at a final concentration of 30 μM. After incubation at 25° C. for 3 hours, a mixture of Anti-His Eu—W1024 and anti-GST allophycocyanin was then added to assay sample wells at final concentrations of 10 nM and 50 nM, respectively, and the reaction incubated for an additional 1.5 hours. […] Compounds that facilitate disruption of a K-Ras: RAF complex were identified as those eliciting a decrease in the TR-FRET ratio relative to DMSO control wells.

Assay [2] deals with KRAS G12V binding to BRAF RBD (Homo sapiens (Human), UniProt P01116+P62937, G12V). Put plainly: Ras-Raf disruption/FRET/MOA assay, KRAS G12V. The conditions noted are these: read-out: KRAS G12V FRET IC50. The assay is classed as biochemical.
Excerpt: as §1, §2, §3

The test system of assay [3] is K-Ras G12C (NCI-H358 cells). Put plainly: Potency assay: pERK in NCI-H358 cells. The conditions noted are these: Homo sapiens; NCI-H358 cells, 4 hours; read-out: pERK EC50 (H358 KRAS G12C). The assay is classed as cell-based, human. In short, it runs like this: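 Cells plated the day before were exposed for 4 h at 37° C, 5% CO2 to a 10-point, 3-fold DMSO dilution series (10 mM top stock), in duplicate. Phospho-ERK was read by AlphaLISA SureFire Ultra or by In-Cell Western with DRAQ5 DNA stain, and IC50 came from a 4-parameter sigmoidal fit.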

For assay [4], the target named is NRAS G12C binding to BRAF RBD (Homo sapiens (Human), UniProt P01111+P62937, G12C). Put plainly: Ras-Raf disruption/FRET/MOA assay, NRAS G12C. The assay is classed as biochemical. In short, it runs like this:
(§4)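 TR-FRET ratio drop relative to DMSO wells marks disruption of the Ras–RAF complex, reported as IC50. Compounds promote a Ras(nucleotide)–cyclophilin A ternary complex that blocks BRAF RBD binding; dosing was 10 points, 3-fold, top 30 μM final, 3 h at 25° C before detection.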

Assay [5] has as its target KRAS G13D binding to BRAF RBD (Homo sapiens (Human), UniProt P01116+P62937, G13D). Put plainly: Ras-Raf disruption/FRET/MOA assay, KRAS G13D. Format: biochemical. In short, it runs like this:
as §4

Assay [6] concerns the target K-Ras G12C(GMP-PNP) binding to BRAF RBD (Homo sapiens (Human), UniProt P01116+P62937, G12C). Put plainly: Disruption of BRAF RBD interaction with K-Ras (FRET / MOA assay), K-Ras G12C. The assay is classed as biochemical. The conditions noted are these: read-out: KRAS G12C FRET IC50. The essentials:
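Cpd 10-pt 3-fold dilution, top 30 μM final; Ras/CypA/BRAF RBD mix 3 h, 25° C. Add anti-His Eu-W1024 10 nM + anti-GST APC 50 nM final, 1.5 h. Readout TR-FRET ratio decrease vs DMSO → IC50.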

A further assay concerns NCI-H358 (K-Ras G12C). Put plainly: CellTiter-Glo cell viability assay, NCI-H358. Format: cell-based, human. The note with it: Homo sapiens, NCI-H358, 120 h, 5-day treatment; read-out: H358 Cell Viability assay data (K-Ras G12C, IC50). The essentials:
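Five-day compound treatment of NCI-H358 cells, then CellTiter-Glo luminescence, percent of DMSO, four-parameter logistic fit.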
In general terms: ATP-based viability assays read luminescence as a measure of living cells.

In assay [7] the test system is Capan-1 cells (K-Ras G12V). Put plainly: CellTiter-Glo cell viability, Capan-1. Format: cell-based, human. The conditions noted are these: Homo sapiens, CAPAN-1, 120 h, K-Ras G12V, 5-day treatment; read-out: Capan-1 Cell Viability IC50. The essentials:
(§5)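 Five-day treatment of K-Ras mutant cells with directly dispensed compound; ATP-based luminescence endpoint. Percent of DMSO signal fit to four-parameter logistic curve.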

In assay [8] the test system is NCI-H358 cells (K-Ras G12C). Put plainly: CellTiter-Glo cell viability, NCI-H358. The assay is classed as cell-based, human. The note with it: Homo sapiens, NCI-H358, 120 h, K-Ras G12C, 5-day treatment; read-out: H358 Cell Viability IC50. The essentials: as §5
Assay [9] concerns the target KRAS WT binding to BRAF RBD (Homo sapiens (Human), UniProt P01116+P62937). Put plainly: Ras-Raf disruption/FRET/MOA assay, KRAS WT. The assay is classed as biochemical.
Excerpt: Disruption of B-Raf Ras-binding Domain (BRAF^RBD) Interaction with K-Ras by Compounds of the Invention (also called a FRET assay or an MOA assay)
as §1, §2
as §3, with “In assay buffer containing 25 mM HEPES pH 7.3, 0.002% Tween20, 0.1% BSA, 100 mM NaCl and 5 mM MgCl2, tagless Cyclophilin A, His6-K-Ras-GMPPNP, and GST-BRAF^RBD were combined in a 384-well assay plate at final concentrations of 25 μM, 12.5 nM and 50 nM, respectively. Compound was” for “Compound was”

In a further assay the target is KRAS G12D (Homo sapiens (Human), UniProt P01116+P62937, G12D). Put plainly: Ras-Raf disruption/FRET/MOA assay (BRAF RBD, Cyclophilin A). Format: biochemical. The conditions noted are these: read-out: KRAS G12D FRET IC50. In short, it runs like this:
(§6)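 Ras-GMPPNP (12.5 nM), BRAF RBD (50 nM) and 25 μM Cyclophilin A were incubated with compound for 3 h at 25° C, then detected 1.5 h with anti-His Eu and anti-GST APC; IC50 values follow from the reduced TR-FRET ratio.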

Another assay deals with KRAS G12S (Homo sapiens (Human), UniProt P01116+P62937, G12S). The description is as above. Format: biochemical. The note with it: read-out: KRAS G12S FRET IC50. In short, it runs like this: as §6
Another assay deals with NRAS WT (Homo sapiens (Human), UniProt P01111+P62937). Described as above. The assay is classed as biochemical. The essentials:
(§7)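 25 μM tagless Cyclophilin A, 12.5 nM His6-Ras-GMPPNP and 50 nM GST-BRAF RBD in HEPES pH 7.3 buffer with 5 mM MgCl2, with compound (10-point 3-fold series from 30 μM final) for 3 h at 25 °C. Anti-His Eu and anti-GST APC then added for 1.5 h. IC50 from TR-FRET ratio decrease versus DMSO.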

The target in another assay is KRAS G13D (Homo sapiens (Human), UniProt P01116+P62937, G13D). Described as above. The assay is classed as biochemical. The note with it: read-out: KRAS G13D FRET data IC50. In short, it runs like this: as §6
Another assay deals with NRAS G12C (Homo sapiens (Human), UniProt P01111+P62937, G12C). The description is as above. The note with it: read-out: NRAS G12C FRET data IC50. Format: biochemical. The essentials:
as §7

The target in another assay is KRAS G12C (Homo sapiens (Human), UniProt P01116+P62937, G12C). The description is as above. The note with it: read-out: KRAS G12C FRET IC50. The assay is classed as biochemical. The essentials: as §6
A further assay has as its target KRAS G12V (Homo sapiens (Human), UniProt P01116+P62937, G12V). Described as above. The conditions noted are these: read-out: KRAS G12V FRET IC50. Format: biochemical. In short, it runs like this: as §6
The target of another assay is NRAS Q61K (Homo sapiens (Human), UniProt P01111+P62937, Q61K). The assay is described as above. Format: biochemical. The essentials: as §7
For the next assay, the target named is KRAS G13C (Homo sapiens (Human), UniProt P01116+P62937, G13C). The description is as above. The assay is classed as biochemical. The note with it: read-out: KRAS G13C FRET IC50. In short, it runs like this:
as §6

In a further assay the target is KRAS Q61H (Homo sapiens (Human), UniProt P01116+P62937, Q61H). The description is as above. The assay is classed as biochemical. The essentials: as §6
The target of another assay is KRAS WT (Homo sapiens (Human), UniProt P01116+P62937). The assay is described as above. Format: biochemical. The conditions noted are these: read-out: KRAS WT FRET data IC50. In short, it runs like this:
as §6

For a further assay, the target named is NRAS Q61R (Homo sapiens (Human), UniProt P01111+P62937, Q61R). The assay is described as above. The assay is classed as biochemical. In short, it runs like this:
as §7

Structures are written as SMILES. Some results are limits rather than exact numbers.

Sequence of KRAS G12S binding to BRAF RBD (P01116 other isoform, or with tags, fused parts or gaps G12S): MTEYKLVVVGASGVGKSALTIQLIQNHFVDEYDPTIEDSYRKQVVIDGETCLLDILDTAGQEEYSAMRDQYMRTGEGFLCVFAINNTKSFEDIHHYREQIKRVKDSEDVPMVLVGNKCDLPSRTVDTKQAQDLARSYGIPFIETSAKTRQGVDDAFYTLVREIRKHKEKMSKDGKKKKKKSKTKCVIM
Sequence of KRAS G12S binding to BRAF RBD (P62937 whole entry, canonical isoform): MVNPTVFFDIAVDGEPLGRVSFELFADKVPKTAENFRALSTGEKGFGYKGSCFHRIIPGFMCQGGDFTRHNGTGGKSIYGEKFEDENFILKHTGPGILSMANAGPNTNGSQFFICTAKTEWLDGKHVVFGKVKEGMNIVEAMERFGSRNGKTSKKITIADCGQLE
Sequence of K-Ras G12C(GMP-PNP) binding to BRAF RBD (P01116 other isoform, or with tags, fused parts or gaps G12C): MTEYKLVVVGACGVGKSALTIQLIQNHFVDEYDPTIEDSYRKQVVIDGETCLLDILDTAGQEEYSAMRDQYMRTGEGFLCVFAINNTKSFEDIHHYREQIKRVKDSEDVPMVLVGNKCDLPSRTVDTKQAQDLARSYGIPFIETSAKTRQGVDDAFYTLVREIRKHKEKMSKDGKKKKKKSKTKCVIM
Sequence of K-Ras G12C(GMP-PNP) binding to BRAF RBD (P62937 whole entry): as the sequence (P62937 whole entry, canonical isoform) above
Sequence of KRAS G12V binding to BRAF RBD (P01116 other isoform, or with tags, fused parts or gaps G12V): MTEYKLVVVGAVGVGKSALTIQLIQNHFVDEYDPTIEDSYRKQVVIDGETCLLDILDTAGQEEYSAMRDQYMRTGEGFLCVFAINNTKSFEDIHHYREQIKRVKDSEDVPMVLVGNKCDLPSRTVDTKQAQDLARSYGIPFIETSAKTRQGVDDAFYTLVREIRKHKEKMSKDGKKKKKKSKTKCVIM
Sequence of KRAS G12V binding to BRAF RBD (P62937 whole entry): as the sequence (P62937 whole entry, canonical isoform) above
Sequence of KRAS WT binding to BRAF RBD (P01116 other isoform, or with tags, fused parts or gaps): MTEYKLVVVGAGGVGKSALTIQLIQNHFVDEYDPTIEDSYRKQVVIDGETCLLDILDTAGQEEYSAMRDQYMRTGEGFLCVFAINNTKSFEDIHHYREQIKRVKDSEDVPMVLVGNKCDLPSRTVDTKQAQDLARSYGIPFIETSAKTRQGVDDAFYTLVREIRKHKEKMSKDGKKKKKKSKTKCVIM
Sequence of KRAS WT binding to BRAF RBD (P62937 whole entry, the tested form may be a part): as the sequence (P62937 whole entry, canonical isoform) above
Sequence of KRAS G13C (P01116 other isoform, or with tags, fused parts or gaps G13C): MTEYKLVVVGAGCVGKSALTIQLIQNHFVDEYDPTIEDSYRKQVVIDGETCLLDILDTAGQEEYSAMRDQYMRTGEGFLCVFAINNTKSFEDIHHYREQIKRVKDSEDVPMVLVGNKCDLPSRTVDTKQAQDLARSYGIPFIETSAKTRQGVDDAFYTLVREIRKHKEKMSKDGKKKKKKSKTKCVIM
Sequence of KRAS G13C (P62937 whole entry): as the sequence (P62937 whole entry, canonical isoform) above
Sequence of KRAS G13D (P01116 other isoform, or with tags, fused parts or gaps G13D): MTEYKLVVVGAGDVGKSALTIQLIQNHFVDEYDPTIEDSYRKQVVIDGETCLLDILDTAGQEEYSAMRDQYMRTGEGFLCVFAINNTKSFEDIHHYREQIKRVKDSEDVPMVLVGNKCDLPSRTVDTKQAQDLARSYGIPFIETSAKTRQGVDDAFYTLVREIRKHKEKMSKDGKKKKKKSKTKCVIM
Sequence of KRAS G13D (P62937 whole entry): as the sequence (P62937 whole entry, canonical isoform) above
Sequence of KRAS G13D binding to BRAF RBD (P01116 other isoform, or with tags, fused parts or gaps G13D): as the sequence (P01116 other isoform, or with tags, fused parts or gaps G13D) above
Sequence of KRAS G13D binding to BRAF RBD (P62937 whole entry): as the sequence (P62937 whole entry, canonical isoform) above
Sequence of KRAS G12D (P01116 other isoform, or with tags, fused parts or gaps G12D): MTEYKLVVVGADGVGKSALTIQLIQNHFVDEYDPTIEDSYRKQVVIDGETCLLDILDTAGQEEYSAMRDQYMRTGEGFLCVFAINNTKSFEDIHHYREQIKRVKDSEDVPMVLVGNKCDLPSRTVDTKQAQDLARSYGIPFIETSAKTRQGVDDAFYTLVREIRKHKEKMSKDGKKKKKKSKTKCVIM
Sequence of KRAS G12D (P62937 whole entry): as the sequence (P62937 whole entry, canonical isoform) above
Sequence of KRAS G12S (P01116 other isoform, or with tags, fused parts or gaps G12S): as the sequence (P01116 other isoform, or with tags, fused parts or gaps G12S) above
Sequence of KRAS G12S (P62937 whole entry): as the sequence (P62937 whole entry, canonical isoform) above
Sequence of KRAS Q61H (P01116 other isoform, or with tags, fused parts or gaps Q61H): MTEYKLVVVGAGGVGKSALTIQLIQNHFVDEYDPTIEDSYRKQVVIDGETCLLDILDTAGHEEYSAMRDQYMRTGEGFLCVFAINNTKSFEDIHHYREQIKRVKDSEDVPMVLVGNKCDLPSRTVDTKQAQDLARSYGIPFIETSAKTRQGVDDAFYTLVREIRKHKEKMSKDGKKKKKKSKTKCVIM
Sequence of KRAS Q61H (P62937 whole entry): as the sequence (P62937 whole entry, canonical isoform) above
Sequence of KRAS WT (P01116 other isoform, or with tags, fused parts or gaps): as the sequence (P01116 other isoform, or with tags, fused parts or gaps) above
Sequence of KRAS WT (P62937 whole entry): as the sequence (P62937 whole entry, canonical isoform) above
Sequence of KRAS G12C (P01116-2 other isoform, or with tags, fused parts or gaps G12C): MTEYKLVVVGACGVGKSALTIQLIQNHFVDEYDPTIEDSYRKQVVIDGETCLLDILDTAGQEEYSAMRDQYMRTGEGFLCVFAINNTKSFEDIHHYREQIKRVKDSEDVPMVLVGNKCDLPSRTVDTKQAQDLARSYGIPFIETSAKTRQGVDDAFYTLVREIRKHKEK
Sequence of KRAS G12C (P62937 whole entry): as the sequence (P62937 whole entry, canonical isoform) above
Sequence of NRAS WT (P01111 whole entry): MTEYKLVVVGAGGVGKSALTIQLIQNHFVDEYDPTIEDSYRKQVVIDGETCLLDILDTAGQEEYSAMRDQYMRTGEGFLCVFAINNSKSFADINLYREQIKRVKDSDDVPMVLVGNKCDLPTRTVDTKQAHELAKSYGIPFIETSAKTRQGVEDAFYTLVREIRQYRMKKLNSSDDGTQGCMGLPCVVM
Sequence of NRAS WT (P62937 whole entry): as the sequence (P62937 whole entry, canonical isoform) above

For `CCn1c(-c2cccnc2[C@H](C)OC)c2c3cc(ccc31)-c1cc(O)cc(c1)C[C@H](NC(=O)[C@H](C(C)C)N(C)C(=O)[C@H]1CCC(C(=O)C#CCOC)C1)C(=O)N1CCC[C@H](N1)C(=O)OCC(C)(C)C2` (stereo partly drawn) [Compound A266], the IC50 – broadly, the concentration that gives 50% inhibition – in assay [1] is 0.01 to 0.1 µM; in assay [2] it was 0.01 to 0.1 µM; in assay [4] it was below 0.01 µM; in assay [5] it was 0.1 to 1 µM; in assay [6], below 0.01 µM; in the assay on NCI-H358 (K-Ras G12C) it was below 0.01 µM. Besides, in assay [3], the EC50 (commonly the concentration at which the effect is half-maximal) was below 5 µM.
Take `CCn1c(-c2cccnc2[C@H](C)OC)c2c3cc(ccc31)-c1csc(n1)C[C@H](NC(=O)N1CC[C@@H]1COC)C(=O)N1CCC[C@H](N1)C(=O)OCC(C)(C)C2` [Compound A264]: the IC50 was in the range of 0.1 to 1 µM in assay [7]; 0.1 to 1 µM in [8]; 0.01 to 0.1 µM in assay [1]; 0.01 to 0.1 µM in assay [2]; 0.01 to 0.1 µM in assay [9]; 0.01 to 0.1 µM in assay [6]. For the same compound, the IC50 with NCI-H358 (K-Ras G12C) was in the range of 0.01 to 0.1 µM; on KRAS G12D it was 0.1 to 1 µM; on KRAS G12S, 0.1 to 1 µM; against NRAS WT it was 0.1 to 1 µM; on KRAS G13D it was 0.1 to 1 µM; on NRAS G12C, 0.01 to 0.1 µM. Besides, the IC50 on KRAS G12C lay within 0.01 to 0.1 µM; at KRAS G12V, 0.01 to 0.1 µM; at NRAS Q61K, 0.1 to 1 µM; at KRAS G13C, 0.1 to 1 µM; against KRAS Q61H, 0.1 to 1 µM; at KRAS WT it was 0.1 to 1 µM. Further, on NRAS Q61R, the IC50 fell in the range of 0.1 to 1 µM.
Take `CCn1c(-c2cccnc2[C@H](C)OC)c2c3cc(ccc31)-c1csc(n1)C[C@H](NC(=O)[C@H](C(C)C)N(C)C(=O)N1CCCC[C@@H](N(C)C)C1)C(=O)N1CCC[C@H](N1)C(=O)OCC(C)(C)C2` [Compound A492]: the IC50 in assay [8] is 0.01 to 0.1 µM; in [1] it was 0.01 to 0.1 µM; in [2], 0.01 to 0.1 µM; in assay [9], 0.01 to 0.1 µM; in assay [6] it was 0.01 to 0.1 µM; in the assay on NCI-H358 (K-Ras G12C), below 0.01 µM. For the same compound, in [3], the EC50 was below 5 µM.
